# From publication PMC12736008, “New Dimethylpyridine-3-Carboxamide Derivatives as MMP-13 Inhibitors with Anticancer Activity” (Molecules, 2025)
# Target: T1, MMP-13 (Homo sapiens, UniProt P45452)
# T1 construct: purchased Abcam ab139451
# Experiment: MMP-13 inhibitor screening assay kit (fluorometric)
# Format: biochemical
# Details: single-point screening; tested compounds 1.8 to 4.6 µM
# Experimental: The inhibitory activity of the designed compounds against MMP-13 was evaluated using a commercial fluorometric MMP-13 inhibitor assay kit (Abcam, Cambridge, UK), following the manufacturer’s protocol. Solutions of the tested compounds were prepared at concentrations ranging from 1.8 to 4.6 µM. N-isobutyl-N-(4-methoxyphenylsulfonyl)glycyl hydroxamic acid (NNGH), a broad-spectrum inhibitor of matrix metalloproteinases, was used as positive control. […] In parallel, MMP-8 inhibition assays were also conducted using the same concentrations of compounds 3b, 3c, 3d, and 3g.
# It should be emphasized that these assays were performed as single-point screening experiments, optimized for rapid qualitative assessment rather than full kinetic characterization. Consequently, the observed differences in activity between MMP-13 and MMP-8 are indicative trends supporting the selectivity predicted by computational studies, including docking, molecular dynamics simulations, and binding free energy calculations, rather than providing definitive quantitative evidence.
# The inhibitory activity of the tested compounds was evaluated using the MMP-13 inhibitor screening assay kit (fluorometric) (Abcam, ab139451). The assay performed according to the manufacturer’s instructions. The designed compounds were tested at concentrations ranging from 1.8 to 4.6 µM, to determine their inhibitory activity. […]
smiles,measurement,value
"COc1ccc(S(=O)(=O)N(CC(=O)NO)CC(C)C)cc1 [NNGH, N-isobutyl-N-(4-methoxyphenylsulfonyl)glycyl hydroxamic acid, reference compound]",MMP-13 activity inhibition,~97%
